According to patent US20150189876A1, “CROP ENHANCEMENT COMPOSITIONS” (Syngenta Participations AG, priority 2012, published 2015):
Like-named read-outs stand apart in the source and are kept apart here.

Columns and labels:
Heliothis virescens = experiment: Egg and larval mortality on artificial diet, 24-well plate, 4 days; assay type: in vivo
Procedure: 2.1 Heliothis virescens (Tobacco Budworm)
Eggs (0-24 h old) were placed in a 24-well microtiter plate on artificial diet and treated with test solutions by pipetting. After an incubation period of 4 days, samples were checked for egg mortality and larval mortality.

Tetranychus urticae = experiment: Leaf disc spray test, 24-well plate, mortality after 6 days (Table 2.2); assay type: in vivo
Procedure: 2.3 Tetranychus urticae (Two-Spotted Spider Mite)
Bean leaf discs were placed on agar in 24-well microtiter plates sprayed with test solutions. After drying, the leaf discs were infested with a mite population of mixed ages. After an incubation period of 6 days, samples were checked for larval mortality, and adult mortality.

Aspergillus parasiticus = experiment: In vitro antifungal checkerboard test, fungal growth by OD450 in 96-well microtiter plates; assay type: cell-based; conditions: for Azoxystrobin Inhibition (%): Azoxystrobin alone
Procedure: (§1) In vitro antifungal activity of fungicides in combination with a compound of formula (II) was evaluated in 96 well-microtiter plate system using the checkerboard method (Vitale, R. G, Afeltra, J., and Dannaoui, E. 2005: Methods in Molecular Medicine, Vol. 118, Antifungal Agents: Methods and Protocols p. 143-152). Active ingredients were two-fold serially diluted in DMSO and mixed with double strength Potato Dextrose Broth or Alkyl Ester agar (AE medium, Miguez, M., Reeve, C., Wood, P. M. and Hollomon, D. W. (2004), Alternative oxidase reduces the sensitivity of Mycosphaerella graminicola to QOI fungicides. Pest. Manag. Sci., 60: 3-7) before filled into wells according to the checkerboard format. Each dilution well containing was inoculated with fungal spore suspension to receive a final concentration of 1×10^4 spores/ml per well. Wells of last column containing only medium and spore suspension were included as control. Three replicated microtiter plates were used in each test system. Fungal growth in each well of the micro-plates was assessed spectrophotometrically at OD450 nm (16-scan point spectrophotometer, Tecan) after inoculation [OD(0 h)=background value] and after an incubation period of 72 h [OD(72 h)] at 25° C. in the dark. Fungal growth was described as increase in OD450 nm during the time interval from 0 h to 72 h [OD(72 h)-OD(0 h)]. Fungal growth in each well of the micro-plates was assessed spectrophotometrically at OD450 nm (16-scan point spectrophotometer, Tecan) after inoculation and after an incubation period of 3-6 days at 25° C. in the dark. Fungal growth was described as increase in OD450 nm during incubation period.

Myzus persicae = experiment: Leaf disc spray test, 24-well plate, mortality after 6 days (Table 2.3); assay type: in vivo
Procedure: 2.2 Myzus persicae (Green Peach Aphid)
Sunflower leaf discs were placed on agar in a 24-well microtiter plate and sprayed with test solutions. After drying, the leaf discs were infested with an aphid population of mixed ages. After an incubation period of 6 days, samples were checked for mortality.

Fusarium culmorum = experiment: In vitro antifungal checkerboard test, fungal growth by OD450 in 96-well microtiter plates; assay type: cell-based
Procedure: as §1

Pyrenophora teres = experiment: as above; assay type: cell-based; conditions: for Sedaxane Inhibition (%): Sedaxane alone
Procedure: as §1

[1] = test system: Fusarium culmorum; Aspergillus parasiticus; Pyrenophora teres; experiment: In vitro antifungal checkerboard test, overall statement on Tables 1.1 to 1.5; assay type: cell-based
Procedure: as §1

[2] = Formula (II) 0.000003 ppm alone
[3] = Compound II alone, read-out: Compound II Inhibition (%)
[4] = Prothioconazole alone, read-out: Prothioconazole Inhibition (%)
[5] = Tebuconazole alone, read-out: Tebuconazole Inhibition (%)
[6] = Thiabendazole alone, read-out: Thiabendazole Inhibition (%)

`Cc1c(F)c(F)c(COC(=O)[C@@H]2[C@H](/C=C(\Cl)C(F)(F)F)C2(C)C)c(F)c1F` (racemic) [Tefluthrin, tefluthrin, reference compound] was tested, and the “% control (average of 2 reps)” value (Heliothis virescens; Tefluthrin 100 ppm alone) was 95% and the “% control (average of 2 reps)” value (Tetranychus urticae; Tefluthrin 100 ppm alone) was 90%.

With `CO/C=C(/C(=O)OC)c1ccccc1Oc1cc(Oc2ccccc2C#N)ncn1` [Azoxystrobin, azoxystrobin, reference compound] the “Azoxystrobin Inhibition (%)” value (Aspergillus parasiticus; 8 ppm) was 82.8%, the “Azoxystrobin Inhibition (%)” value (Aspergillus parasiticus; 16 ppm) was 84.5% and the “Azoxystrobin Inhibition (%)” value (Aspergillus parasiticus; 32 ppm) was 78.5%. For the same compound, the “Azoxystrobin Inhibition (%)” value (Aspergillus parasiticus; 64 ppm) was 60.8%.

In the case of `CNC(=O)c1cc(Cl)cc(C)c1NC(=O)c1cc(Br)nn1-c1ncccc1Cl` [Chlorantraniliprole, chlorantraniliprole, reference compound], the “% control (average of 2 reps)” value (Heliothis virescens; Chlorantraniliprole 0.4 ppm alone) is reported as 90% and the “% control (average of 2 reps)” value (Tetranychus urticae; Chlorantraniliprole 400 ppm alone) is reported as 95%.

With `CN/C(=N\[N+](=O)[O-])NCc1cnc(Cl)s1` [Clothianidin, clothianidin, reference compound] the “% control (average of 2 reps)” value (Heliothis virescens; Clothianidin 50 ppm alone) was 100% and the “% control (average of 2 reps)” value (Myzus persicae; Clothianidin 3 ppm alone) was 100%.

In the case of `CC1=C[C@H](O/C=C2/C(=O)NC3c4ccccc4CC23)OC1=O` (some centres unmarked) [Compound II], the “% control (average of 2 reps)” value (Heliothis virescens; [2]) is reported as 0%, the “% control (average of 2 reps)” value (Heliothis virescens; Formula (II) 0.0003 ppm alone) is reported as 0% and the “% control (average of 2 reps)” value (Heliothis virescens; Formula (II) 0.03 ppm alone) is reported as 0%. The “% control (average of 2 reps)” value (Heliothis virescens; Formula (II) 1 ppm alone) was 0%, the “antagonism of the activity of the insecticides” value (shortened to “antagonism … of the insecticides”) (Heliothis virescens; mixtures of Table 2.1) was “did not antagonise the activity of any of the insecticides” and the “% control (average of 2 reps)” value (Tetranychus urticae; [2]) was 0%. The “% control (average of 2 reps)” value (Tetranychus urticae; Formula (II) 0.0003 ppm alone) was 0%, the “% control (average of 2 reps)” value (Tetranychus urticae; Formula (II) 0.03 ppm alone) was 0% and the “% control (average of 2 reps)” value (Tetranychus urticae; Formula (II) 1 ppm alone) was 0%. For the same compound, the “antagonism … of the insecticides” value (Tetranychus urticae; mixtures of Table 2.2) was “did not antagonise the activity of any of the insecticides”, the inhibition at 0.125 ppm (Aspergillus parasiticus; Aspergillus parasiticus, Compound II alone, 0.125 ppm) was 8.7% and the inhibition at 0.25 ppm (Aspergillus parasiticus; Aspergillus parasiticus, Compound II alone, 0.25 ppm) was 11.3%. It also gave an inhibition at 0.5 ppm (Aspergillus parasiticus; Aspergillus parasiticus, Compound II alone, 0.5 ppm) of 9.3%, an inhibition at 1 ppm (Aspergillus parasiticus; Aspergillus parasiticus, Compound II alone, 1 ppm) of 9.6% and an inhibition at 2 ppm (Aspergillus parasiticus; Aspergillus parasiticus, Compound II alone, 2 ppm) of 0.5%. It also gave an inhibition at 4 ppm (Aspergillus parasiticus; Aspergillus parasiticus, Compound II alone, 4 ppm) of 5.4%, an inhibition at 8 ppm (Aspergillus parasiticus; Aspergillus parasiticus, Compound II alone, 8 ppm) of 20.5% and an inhibition at 16 ppm (Aspergillus parasiticus; Aspergillus parasiticus, Compound II alone, 16 ppm) of 22.1%. The inhibition at 32 ppm (Aspergillus parasiticus; Aspergillus parasiticus, Compound II alone, 32 ppm) was 2%, the inhibition at 64 ppm (Aspergillus parasiticus; Aspergillus parasiticus, Compound II alone, 64 ppm) was 11.3% and the inhibition at 0.0625 ppm (Fusarium culmorum; Compound II alone, 0.0625 ppm) was 1.8%. The inhibition at 0.125 ppm (Fusarium culmorum; Compound II alone, 0.125 ppm) was 6.5%, the inhibition at 0.25 ppm (Fusarium culmorum; Compound II alone, 0.25 ppm) was 3.2% and the inhibition at 0.5 ppm (Fusarium culmorum; Compound II alone, 0.5 ppm) was 1.2%. For the same compound, the inhibition at 1 ppm (Fusarium culmorum; Compound II alone, 1 ppm) was 0%, the inhibition at 2 ppm (Fusarium culmorum; Compound II alone, 2 ppm) was 2.5% and the inhibition at 4 ppm (Fusarium culmorum; [3]) was 1.3%. It also gave an inhibition at 8 ppm (Fusarium culmorum; [3]) of 0%, an inhibition at 16 ppm (Fusarium culmorum; Compound II alone, 16 ppm) of 0% and an inhibition at 32 ppm (Fusarium culmorum; Compound II alone, 32 ppm) of 0%. The inhibition at 0.25 ppm (Pyrenophora teres; Pyrenophora teres, Compound II alone, 0.25 ppm) was 0%, the inhibition at 0.5 ppm (Pyrenophora teres; Pyrenophora teres, Compound II alone, 0.5 ppm) was 0% and the inhibition at 1 ppm (Pyrenophora teres; Pyrenophora teres, Compound II alone, 1 ppm) was 0%. For the same compound, the inhibition at 2 ppm (Pyrenophora teres; Pyrenophora teres, Compound II alone, 2 ppm) was 0%, the inhibition at 4 ppm (Pyrenophora teres; Pyrenophora teres, Compound II alone, 4 ppm) was 0% and the inhibition at 8 ppm (Pyrenophora teres; Pyrenophora teres, Compound II alone, 8 ppm) was 0%. It also gave an inhibition at 16 ppm (Pyrenophora teres; Pyrenophora teres, Compound II alone, 16 ppm) of 0%, an inhibition at 32 ppm (Pyrenophora teres; Pyrenophora teres, Compound II alone, 32 ppm) of 0% and an inhibition at 64 ppm (Pyrenophora teres; Pyrenophora teres, Compound II alone, 64 ppm) of 0%. For the same compound, the inhibition at 128 ppm (Pyrenophora teres; Pyrenophora teres, Compound II alone, 128 ppm) was 3.9%, the “synergistic effect on the activity of fungicides” value ([1]; at some rates) was “provides a synergistic effect on the activity of fungicides at some rates” and the “fungicidal activity of the compound of formula (II) alone” value ([1]; in general, Tables 1.1 to 1.5) was “did not cause any, or only very low levels of fungicidal activity”. For the same compound, the “antagonism of the activity of the fungicides tested” value ([1]; in general, mixtures of Tables 1.1 to 1.5) was “did not antagonise the activity of any of the fungicides tested”, the “% control (average of 2 reps)” value (Myzus persicae; [2]) was 0% and the “% control (average of 2 reps)” value (Myzus persicae; Formula (II) 0.0003 ppm alone) was 0%. The “% control (average of 2 reps)” value (Myzus persicae; Formula (II) 0.03 ppm alone) was 0%, the “% control (average of 2 reps)” value (Myzus persicae; Formula (II) 1 ppm alone) was 0% and the “antagonism … of the insecticides” value (Myzus persicae; mixtures of Table 2.3) was “did not antagonise the activity of any of the insecticides”.

With `CNC(=O)c1cc(C#N)cc(C)c1NC(=O)c1cc(Br)nn1-c1ncccc1Cl` [Cyantraniliprole, cyantraniliprole, reference compound] the “% control (average of 2 reps)” value (Heliothis virescens; Cyantraniliprole 0.8 ppm alone) was 100% and the “% control (average of 2 reps)” value (Tetranychus urticae; Cyantraniliprole 100 ppm alone) was 95%.

`O=[N+]([O-])NC1=NCCN1Cc1ccc(Cl)nc1` [Imidacloprid, imidacloprid, reference compound] was tested, and the “% control (average of 2 reps)” value (Heliothis virescens; Imidacloprid 200 ppm alone) was 100% and the “% control (average of 2 reps)” value (Myzus persicae; Imidacloprid 1.6 ppm alone) was 100%.

For `OC(Cc1ccccc1Cl)(Cn1nc[nH]c1=S)C1(Cl)CC1` (centres unmarked) [Prothioconazole, prothioconazole, reference compound], the inhibition at 64 ppm (Fusarium culmorum; [4]) was 97.3% and the inhibition at 128 ppm (Fusarium culmorum; [4]) was 95%.

`Cn1cc(C(=O)Nc2ccccc2C2CC2C2CC2)c(C(F)F)n1` (centres unmarked) [Sedaxane, sedaxane, reference compound] was tested, and the “Sedaxane Inhibition (%)” value (Pyrenophora teres; 4 ppm) was 62.5%, the “Sedaxane Inhibition (%)” value (Pyrenophora teres; 8 ppm) was 81.2% and the “Sedaxane Inhibition (%)” value (Pyrenophora teres; 16 ppm) was 82.1%. The “Sedaxane Inhibition (%)” value (Pyrenophora teres; 32 ppm) was 85.9% and the “Sedaxane Inhibition (%)” value (Pyrenophora teres; 64 ppm) was 88.1%.

`CC(c1ccc(C(F)(F)F)nc1)S(C)(=O)=NC#N` (centres unmarked) [Sulfoxaflor, sulfoxaflor, reference compound] was tested, and the “% control (average of 2 reps)” value (Myzus persicae; Sulfoxaflor 0.8 ppm alone) was 100%.

In the case of `CC(C)(C)C(O)(CCc1ccc(Cl)cc1)Cn1cncn1` (centres unmarked) [Tebuconazole, tebuconazole, reference compound], the inhibition at 4 ppm (Fusarium culmorum; [5]) is reported as 97.1% and the inhibition at 8 ppm (Fusarium culmorum; [5]) is reported as 90.1%.

For `c1ccc2[nH]c(-c3cscn3)nc2c1` [Thiabendazole, thiabendazole, reference compound], the inhibition at 64 ppm (Fusarium culmorum; [6]) was 98.3% and the inhibition at 128 ppm (Fusarium culmorum; [6]) was 99.4%.

For `CN1COCN(Cc2cnc(Cl)s2)/C1=N\[N+](=O)[O-]` [Thiamethoxam, thiamethoxam, reference compound], the “% control (average of 2 reps)” value (Myzus persicae; Thiamethoxam 3 ppm alone) was 100%.

For abamectin [reference compound], the “% control (average of 2 reps)” value (Heliothis virescens; Abamectin 3 ppm alone) was 95% and the “% control (average of 2 reps)” value (Tetranychus urticae; Abamectin 0.2 ppm alone) was 100%.
